According to patent US10071158B2, “Combination of the application of antibodies for immunostimulation together with glucocorticoids” (Lindis Biotech GmbH, priority 2005, dated 2018):
“Also recorded” adds a separate entry of the source.

What was measured:
[1] = test system: HCT8 tumour cells; test: Two-hour cytotoxicity assay with fluorescence-marked (BCECF-AM) HCT8 tumour cells, stimulated PBMC (FIG. 5); assay type: cell-based, human; design: effect on specific percentage cytotoxicity of stimulated PBMC: dose or concentration left out as unconfirmed
Description: FIG. 5A-5D represents in diagrams the results of the measurement of the specific percentage cytotoxicity, which was determined in a two-hour cytotoxicity assay with fluorescence-marked HCT8 tumour cells. In FIGS. 5A to 5D the specific percentage cytotoxicity against HCT8 has been plotted as a function of the ratio of effector cells to target cells (E/T), the cytotoxicity test having been carried out in each instance in the case of a ratio of the effector cells to the target cells of 40:1, 20:1, 10:1, 5:1 and 2.5:1.
With the aid of a cytotoxicity test the influence of glucocorticoid on the T-cell toxicity was investigated. The extraction of the PBMC and the stimulation thereof were carried out in accordance with the above Example 1.
The measurement of cytotoxicity was undertaken with the aid of a fluorescence test using the dyestuff BCECF-AM. The measurement was undertaken by means of 2 h release technology corresponding to the procedure in Kolber et al. (1988) J. Immunol. Meth. 108: 255-264.

[2] = test system: mononuclear cells of the peripheral blood (PBMC); test: Release of TNF-α by PBMC after stimulation with anti-EpCAM x anti-CD3 antibody without/with HCT8 tumour cells (ELISA); assay type: cell-based, human; details: without HCT8; dexamethasone 0.1 μg/ml (FIG. 2C)
From the text: FIG. 2A-2C represents in diagrams the results of the release of tumour necrosis factor α (TNF-α) after stimulation with trifunctional bispecific antibody of the specificity anti-EpCAM x anti-CD3 without and in the presence of EpCAM-positive tumour cells.
This stimulation without target cells corresponds, in turn, as already stated with respect to FIG. 1A, to the systemic, non-specific release of cytokine, which arises independently of the antibody/antigen interaction. This systemic release of TNF-α is effected by the totality of the PBMC population. […]
FIG. 2B represents, in a diagram similar to FIG. 1B, the release of TNF-α from PBMC after antibody stimulation with contact with EpCAM-positive tumour cells, the TNF-α concentration in pg/ml being plotted, here too, on the y-axis. […] In the case of stimulation with contact with EpCAM-positive tumour cells, in comparison with the stimulation without contact with target cells, in connection with the release of TNF-α absolutely higher values are also measured, which, however, as already stated above with respect to the release of IL-6 in connection with FIG. 1B, has its origin in the specific immunological action at the site of the antibody/antigen interaction. […]
(§1) FIGS. 14 to 16 show graphic representations of the results of the release of various cytokines in tumour patients by PBMC. […] The release of the same cytokines was measured likewise. […]

[3] = after i.v. injection; cited from earlier work
[4] = test system: mononuclear cells of the peripheral blood (PBMC); test: Release of IFN-γ by PBMC after stimulation with anti-EpCAM x anti-CD3 antibody without/with HCT8 tumour cells (ELISA); assay type: cell-based, human; details: dexamethasone 0.1 μg/ml
Description: Mononuclear cells were extracted from the peripheral blood of a healthy volunteer by means of centrifugation over Ficoll (density 1.068 g/cm^3). To this end, venous heparinised blood was stratified over Ficoll and centrifuged at 2000 rpm for 20 min. The cell layer located above the Ficoll was pipetted off after centrifugation and was washed with PBS.
For the purpose of stimulation, the PBMC were used at a concentration of 1×10^6/ml. The stimulation of the PBMC was effected with an intact trifunctional bispecific antibody either of the specificity anti-EpCAM x anti-CD3 at a concentration of 100 μg/ml or of the specificity anti-HER2/neu x anti-CD3 at a concentration of 1 mg/ml. The stimulation was carried out for 24 h by incubation at 37 ° C. The stimulation was effected in each instance without tumour cells or in the presence of 5×10^4 HCT8 tumour cells (relative to ATCC; EpCAM-positive) per ml.
After the stimulation the determination of the concentrations of the cytokines IL-6, IL-10, TNF-α and IFN-γ was undertaken in the supernatant on plates with 24 recesses in each instance by means of an ELISA. In each instance duplicate measurements were carried out. The ELISAs were undertaken by means of standardised kits produced by R&D Systems, in accordance with the manufacturer's instructions.

[5] = test system: mononuclear cells of the peripheral blood (PBMC); test: Release of IL-6 by PBMC after stimulation with anti-EpCAM x anti-CD3 antibody without/with HCT8 tumour cells (ELISA); assay type: cell-based, human; details: antibody-stimulated PBMC with HCT8; dexamethasone 0.01 μg/ml to 10 μg/ml (FIG. 1B)
Description: FIG. 1A represents the release of IL-6, the IL-6 concentration in pg/ml being plotted on the y-axis. On the x-axis the respective stimulation of the PBMC has been plotted, with unstimulated PBMC serving by way of control (bar “PBMC”). In this connection, E signifies in each instance the stimulation with 100 μg/ml trifunctional bispecific antibody with the specificity anti-EpCAM x anti-CD3. […] In the experiment according to FIG. 1A the release of IL-6 from PBMC is investigated after stimulation without contact with EpCAM-positive tumour cells (=target cells). The stimulation without EpCAM-positive tumour cells corresponds to the non-specific release of cytokine, which is independent of the antigen binding. Release is accordingly effected systemically by the totality of the PBMC.
This procedure of stimulation with EpCAM-positive tumour cells corresponds to the situation of the release of IL-6 by the PBMC at the site of antigen binding. […] In the clinical use of the immunostimulating antibody together with the glucocorticoid the high quantity of IL-6 is released only by a few PBMC that are directly involved in the specific action. […]
as §1

[6] = test system: HCT8 tumour cells; test: Cytotoxicity assay with fluorescence-marked HCT8 tumour cells, PBMC of healthy test subjects and tumour patients (FIG. 10); assay type: cell-based, human
Description: FIGS. 10A to 10C represent the mean values of the measurements carried out in respect of three healthy test subjects, whereas FIG. 10D represents the mean values of the measurements carried out in respect of six patients with gastrointestinal carcinoma. In the experiments a stimulation was effected with trifunctional bispecific antibodies with the specificity anti-EpCAM x anti-CD3 at various concentrations amounting to 10 ng/ml, 100 ng/ml and 1000 ng/ml. The respective concentration of the antibody that has been used is specified in FIGS. 10A to 10D. The concentration of the PBMC amounted to 10^6 cells/ml, that of the HCT8 cells amounted to 5×10^4 cells/ml. […] On the y-axis the percentage cytotoxicity has been plotted; on the x-axis the respective experimental assay of the PBMC has been plotted, with unstimulated PBMC serving by way of control (PBMC).

C[C@@H]1C[C@H]2[C@@H]3CCC4=CC(=O)C=C[C@]4(C)[C@@]3(F)[C@@H](O)C[C@]2(C)[C@@]1(O)C(=O)CO [dexamethasone]
effect on the cytotoxicity of stimulated PBMC ([1]; dexamethasone 0.01 μg/ml): no effect | percentage cytotoxicity ([1]; dexamethasone 0.1 μg/ml to 10 μg/ml, stimulation in the presence of HCT8, E/T 40:1): maintained constant at a high level | inhibition of the specific percentage cytotoxicity ([1]; dexamethasone 0.1 μg/ml, with or without HCT8 during stimulation (FIG. 5B)): about 50 percentage points | inhibition of the percentage specific cytotoxicity ([1]; dexamethasone 1 μg/ml, E/T 20:1, stimulation in the absence of HCT8): distinctly greater inhibition | inhibition of the specific percentage cytotoxicity compared with 0.1 μg/ml ([1]; dexamethasone 1 μg/ml, stimulation in the presence of HCT8 (FIG. 5C)): roughly the same level | cytotoxicity values in relation to lower dexamethasone concentrations ([1]; dexamethasone 10 μg/ml, stimulation in the absence of HCT8): declined further | percentage cytotoxicity ([1]; dexamethasone 10 μg/ml, stimulation in the presence of HCT8, E/T 20:1 (FIG. 5D)): 30% | specific percentage cytotoxicity ([1]; dexamethasone 10 μg/ml, stimulation in the presence of HCT8, E/T twice as large (40:1)): about 60% | effect on specific percentage cytotoxicity of stimulated PBMC ([1]; dexamethasone (FIG. 5A)): no effect; also recorded: no inhibition | effect on cytotoxicity ([1]; dexamethasone starting from 0.1 μg/ml, independent of HCT8 during stimulation): significant reducing; also recorded: distinct reducing | percentage cytotoxicity as a function of dexamethasone concentration ([1]; stimulation of PBMC without HCT8): declines further | non-specific secretion of TNF-α, % of value with antibody without dexamethasone [2]: ~20% | maximum plasma concentrations attained [3]: within a few minutes | release of IFN-γ [4]: under 3000 pg/ml | release of IL-6 in the supernatant [5]: above 5000 pg/ml | inhibition of the specific percentage cytotoxicity ([6]; antibody 10 ng/ml, no contact with HCT8, dexamethasone, healthy test subjects): about 5 percentage points | inhibition of the specific percentage cytotoxicity ([6]; antibody 10 ng/ml, with HCT8, dexamethasone up to 1.0, healthy test subjects (FIG. 10A)): approximately 15 percentage points | specific percentage cytotoxicity ([6]; antibody 10 ng/ml, with HCT8, with dexamethasone, healthy test subjects): ~41% | inhibition of the cytotoxicity ([6]; antibody 100 ng/ml, dexamethasone, patients with gastrointestinal tumours (FIG. 10D)): approximately 27 percentage points | inhibition of the specific percentage cytotoxicity ([6]; antibody 100 ng/ml, with HCT8, dexamethasone up to 1.0, healthy test subjects (FIG. 10B)): about 30 percentage points | specific percentage cytotoxicity ([6]; antibody 100 ng/ml, with HCT8, with dexamethasone, healthy test subjects): ~50% | cytotoxicity ([6]; antibody 100 ng/ml, with dexamethasone, patients with gastrointestinal tumours): ~51% | inhibition of the cytotoxicity ([6]; antibody 100 ng/ml, without contact with HCT8, dexamethasone, healthy test subjects): approximately 10 percentage points | inhibition of the specific percentage cytotoxicity ([6]; antibody 1000 ng/ml, with HCT8, dexamethasone up to 1.0, healthy test subjects (FIG. 10C)): about 20 percentage points | specific percentage cytotoxicity ([6]; antibody 1000 ng/ml, with HCT8, with dexamethasone, healthy test subjects): ~67% | inhibition of the cytotoxicity ([6]; antibody 1000 ng/ml, without contact with HCT8, dexamethasone, healthy test subjects): about 2 percentage points
